Data as given in US20080181957A1, “INCREASED AMORPHOUS STABILITY OF POORLY WATER SOLUBLE DRUGS BY NANOSIZING” (priority 2006, published 2008).

Key:
Format in all cases: physicochemical
[1] = Water solubility; conditions: 25 °C
Method: “Water solubility” means a measure of the maximum possible concentration of a drug dissolved in water. The water temperature may be specified; in an embodiment water solubility is determined at 25 Deg. C. Units of measurement of water solubility are typically mass/volume, such as mg/ml. […] C.; preferably less than or equal to about 0.1 mg/ml at 25 Deg. […] C.

[2] = DSC amorphous stability (recrystallization) on storage at 25 Deg C; conditions: FIG. 3; for crystallinity: DSC
Method: The amorphous state of the amorphous drug core is determined by subjecting a population of nanoparticles that comprise one or more nanoparticles that comprise the recited amorphous drug core to differential scanning calorimetry (DSC). In an embodiment, a DSC method according to the invention used a Perkin-Elmer DSC-7 or a Diamond DSC calorimeter applied for the measurement of specific transition temperatures of tested samples. Thus, the glass transition (Tg), melting (Tm) and crystallization (Tc) temperatures were measured for each sample, according to the PN-EN ISO 11357-1:2002 (ISO 11357-1:1997), ISO 11357-2:1999 and ISO 11357-3:1999 standards, at the rate of temperature change of 10 Deg C./min. The instrument was calibrated using indium, tin and zinc certified reference materials (CRMs)
The amorphous state of the amorphous drug core, as measured by DSC is expressed as a weight fraction of the weight of amorphous material in the amorphous drug core to the total weight of the amorphous drug core, expressed as an average value across the population of nanoparticles being measured. For instance, if a population of nanoparticles was measured using DSC, and the amorphous state was determined to be a particular value for the population, that value would be considered the average amorphous state for each nanoparticle within the population. An inventive amorphous drug core may contain a small amount of crystalline drug.
“Amorphous stability” means a measure of how much a material changes in its structure from being amorphous to being crystalline under defined conditions and a set timeframe. […] For instance, an amorphous material that is initially 98% w/w amorphous is considered amorphously stable according to the invention if, at the end of 6 months testing at 25 degree C., the material is at least 88% w/w amorphous. The amorphous state of a material according to the invention is determined using a DSC method as detailed above and elsewhere herein.

[3] = XRD amorphous stability of dried samples on storage; conditions: storage 3 month and 1 year, nanosized sample dried by lyophilization, FIGS. 1 and 2

Structure (SMILES) | solubility [1] | crystallinity ([2]; 4 month time point) | crystallinity ([2]; 5 month time point) | crystallinity ([2]; 6 month time point) | storage time after which recrystallization was detectable by DSC ([2]; storage at 25 Deg C) | XRD amorphous stability [3]
O=C(NN1CCCCC1)c1nn(-c2ccc(Cl)cc2Cl)c2c1CCC/C2=C\c1ccc(F)cc1 [COMPOUND 1] | ≤ 0.2 ng/mL |  |  |  |  | 
O=C(NN1CCCCC1)c1nn(-c2ccc(Cl)cc2Cl)c2c1CCC/C2=C\c1ccc(F)cc1 [bulk amorphous COMPOUND 1] |  | 0.44% | 1.39% | 10.54% | 4 month | XRD amorphous stability can be achieved up to 1 year
